Measurements from ChEMBL document CHEMBL1152679, “The lifespan-promoting effect of acetic acid and Reishi polysaccharide” (2009).
Activity calls are given as the source filed them. The rule behind the calls is not given here.

Test system: Caenorhabditis elegans
Assay: Longevity-promoting activity in wild type Caenorhabditis elegans N2 assessed as increase in lifespan at 50 ppm by microscopic analysis
Type: functional, organism-based

| SMILES | Activity |
| --- | --- |
| O=C(O)CC(O)(CC(=O)O)C(=O)O | inactive |
| CC(=O)O | Active |
| O=C(O)c1ccccc1 | inactive |
